Source: patent US20230219986A1, “NOVEL AMINOPYRIMIDINE EGFR INHIBITOR” (QILU PHARMACEUTICAL CO., LTD., priority 2020, published 2023)
Like-named read-outs stand apart in the source and are kept apart here.

Key:
[1] = target: T1, L858R/T790M/C797S triple mutant EGFR (Homo sapiens, UniProt P00533, C797S/L858R/T790M); test: Enzymology experiment in vitro (HTRF/FRET kinase activity), L858R/T790M/C797S triple mutant EGFR; format: biochemical; conditions: HTRF KinEASE-TK
T1 construct: purchased Signalchem
Summary of the method: (§1)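 Kinase reaction run 40 min at room temperature with peptide and ATP after a 10 min compound–enzyme preincubation. Phosphorylation read as HTRF signal after 1 h with Eu³⁺ antibody, XL665-streptavidin and EDTA (Cisbio KinEASE-TK).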

wild-type EGFR = target: T2, wild-type EGFR (Homo sapiens, UniProt P00533); test: Enzymology experiment in vitro (HTRF/FRET kinase activity), wild-type EGFR; format: biochemical; conditions: HTRF KinEASE-TK
T2 construct: purchased Signalchem
Summary of the method: as §1

[2] = test system: EGFR wild-type cell line A431; test: Cell proliferation inhibition experiment (CellTiter-Glo), A431; format: cell-based; conditions: Homo sapiens, A431 cells, Cell Titer-Glo, read-out: A431 EGFR WT IC50
Summary of the method: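 Luminescent CellTiter-Glo readout, 30 min at room temperature, after 72 h compound exposure at 37° C., 5% CO2 with 0.1% DMSO final. EGFR wild-type A431 cells were seeded at 800 per well and grown 24 h before dosing. IC50 derived from the dose-response.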

[3] = target: Ba/F3 De119/T790M/C797S EGFR triple mutant cell line (Homo sapiens, UniProt P00533, T790M/C797S, cells depend on it, form not given); test: Cell proliferation inhibition experiment (CellTiter-Glo), Ba/F3 De119/T790M/C797S; format: cell-based; conditions: Ba/F3 Del19/T790M/C797S EGFR triple mutant cells, 72 hours, Cell Titer-Glo; read-out: Ba/F3 (Del19/T790M/C797S) IC50
[4] = target: Ba/F3 L858R/T790M/C797S EGFR triple mutant cell line (Homo sapiens, UniProt P00533, T790M/C797S/L858R, cells depend on it); test: Cell proliferation inhibition experiment (CellTiter-Glo), Ba/F3 L858R/T790M/C797S; format: cell-based; conditions: 72 hours, Cell Titer-Glo, read-out: Ba/F3 (L858R/T790M/C797S) IC50
[5] = read-out: EGFR (L858R/T790M/C797S) IC50

T1 sequence (P00533 25-1210 T790M/C797S/L858R): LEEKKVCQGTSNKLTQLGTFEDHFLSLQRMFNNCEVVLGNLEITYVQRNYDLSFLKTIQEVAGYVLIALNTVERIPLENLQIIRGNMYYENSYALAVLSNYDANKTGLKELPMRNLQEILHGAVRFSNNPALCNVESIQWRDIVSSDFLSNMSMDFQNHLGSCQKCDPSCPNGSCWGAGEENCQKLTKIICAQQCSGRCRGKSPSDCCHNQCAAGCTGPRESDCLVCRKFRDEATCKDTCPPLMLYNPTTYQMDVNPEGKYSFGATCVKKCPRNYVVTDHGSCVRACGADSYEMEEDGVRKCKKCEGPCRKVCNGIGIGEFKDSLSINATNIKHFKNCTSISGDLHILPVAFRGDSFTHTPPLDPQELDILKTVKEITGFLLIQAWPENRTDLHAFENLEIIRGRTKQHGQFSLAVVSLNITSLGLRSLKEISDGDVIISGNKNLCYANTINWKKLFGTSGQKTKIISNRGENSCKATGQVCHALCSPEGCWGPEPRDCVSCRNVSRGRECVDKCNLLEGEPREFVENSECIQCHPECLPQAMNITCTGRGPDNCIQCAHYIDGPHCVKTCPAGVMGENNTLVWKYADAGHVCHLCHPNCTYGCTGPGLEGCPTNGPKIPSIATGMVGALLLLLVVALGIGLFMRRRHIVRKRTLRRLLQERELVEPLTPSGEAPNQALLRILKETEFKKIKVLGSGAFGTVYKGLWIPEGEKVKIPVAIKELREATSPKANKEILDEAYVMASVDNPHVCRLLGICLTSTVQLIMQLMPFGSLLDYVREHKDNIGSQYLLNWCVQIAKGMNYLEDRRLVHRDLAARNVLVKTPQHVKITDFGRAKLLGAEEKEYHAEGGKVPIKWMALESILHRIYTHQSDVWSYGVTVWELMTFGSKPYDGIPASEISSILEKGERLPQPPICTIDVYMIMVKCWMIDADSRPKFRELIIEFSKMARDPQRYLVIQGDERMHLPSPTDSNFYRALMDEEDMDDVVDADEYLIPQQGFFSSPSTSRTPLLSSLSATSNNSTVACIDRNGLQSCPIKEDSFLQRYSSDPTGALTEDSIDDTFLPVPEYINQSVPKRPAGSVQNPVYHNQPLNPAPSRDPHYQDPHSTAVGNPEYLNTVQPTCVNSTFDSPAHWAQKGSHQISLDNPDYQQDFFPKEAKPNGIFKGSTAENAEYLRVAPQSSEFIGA
Sequence of Ba/F3 L858R/T790M/C797S EGFR triple mutant cell line (P00533 whole entry T790M/C797S/L858R): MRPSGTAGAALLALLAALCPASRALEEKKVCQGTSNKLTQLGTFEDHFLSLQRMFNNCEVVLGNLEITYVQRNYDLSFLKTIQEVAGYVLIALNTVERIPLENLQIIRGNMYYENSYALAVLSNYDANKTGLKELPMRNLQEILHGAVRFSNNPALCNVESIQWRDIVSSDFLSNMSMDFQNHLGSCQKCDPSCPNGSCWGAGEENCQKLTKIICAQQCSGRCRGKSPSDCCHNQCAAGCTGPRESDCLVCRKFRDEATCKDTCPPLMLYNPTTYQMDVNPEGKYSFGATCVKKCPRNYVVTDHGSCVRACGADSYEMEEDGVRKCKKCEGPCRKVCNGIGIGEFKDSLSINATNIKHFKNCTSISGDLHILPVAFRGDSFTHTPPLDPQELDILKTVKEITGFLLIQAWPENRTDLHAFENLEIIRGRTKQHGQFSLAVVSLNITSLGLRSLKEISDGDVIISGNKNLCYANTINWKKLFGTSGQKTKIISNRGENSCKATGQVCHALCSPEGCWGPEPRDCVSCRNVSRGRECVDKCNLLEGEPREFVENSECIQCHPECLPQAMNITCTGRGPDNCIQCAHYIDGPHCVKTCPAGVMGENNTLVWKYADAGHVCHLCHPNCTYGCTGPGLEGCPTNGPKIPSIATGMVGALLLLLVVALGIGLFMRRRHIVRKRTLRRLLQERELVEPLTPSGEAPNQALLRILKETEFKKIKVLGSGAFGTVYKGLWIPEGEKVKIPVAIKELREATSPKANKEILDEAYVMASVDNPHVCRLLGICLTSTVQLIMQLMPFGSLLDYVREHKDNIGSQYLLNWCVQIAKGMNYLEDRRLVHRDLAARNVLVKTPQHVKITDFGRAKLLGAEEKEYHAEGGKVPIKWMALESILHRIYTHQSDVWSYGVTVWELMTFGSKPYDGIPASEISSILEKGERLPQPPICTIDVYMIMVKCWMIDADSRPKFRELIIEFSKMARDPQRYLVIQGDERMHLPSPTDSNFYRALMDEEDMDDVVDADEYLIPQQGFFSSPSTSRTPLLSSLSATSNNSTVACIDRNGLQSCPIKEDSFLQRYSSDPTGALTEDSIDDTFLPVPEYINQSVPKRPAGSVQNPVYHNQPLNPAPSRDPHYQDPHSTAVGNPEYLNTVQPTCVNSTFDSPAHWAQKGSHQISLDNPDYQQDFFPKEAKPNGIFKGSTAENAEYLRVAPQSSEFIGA
Sequence of Ba/F3 De119/T790M/C797S EGFR triple mutant cell line (P00533 with tags, fused parts or gaps DEL746-750/T790M/C797S, form open): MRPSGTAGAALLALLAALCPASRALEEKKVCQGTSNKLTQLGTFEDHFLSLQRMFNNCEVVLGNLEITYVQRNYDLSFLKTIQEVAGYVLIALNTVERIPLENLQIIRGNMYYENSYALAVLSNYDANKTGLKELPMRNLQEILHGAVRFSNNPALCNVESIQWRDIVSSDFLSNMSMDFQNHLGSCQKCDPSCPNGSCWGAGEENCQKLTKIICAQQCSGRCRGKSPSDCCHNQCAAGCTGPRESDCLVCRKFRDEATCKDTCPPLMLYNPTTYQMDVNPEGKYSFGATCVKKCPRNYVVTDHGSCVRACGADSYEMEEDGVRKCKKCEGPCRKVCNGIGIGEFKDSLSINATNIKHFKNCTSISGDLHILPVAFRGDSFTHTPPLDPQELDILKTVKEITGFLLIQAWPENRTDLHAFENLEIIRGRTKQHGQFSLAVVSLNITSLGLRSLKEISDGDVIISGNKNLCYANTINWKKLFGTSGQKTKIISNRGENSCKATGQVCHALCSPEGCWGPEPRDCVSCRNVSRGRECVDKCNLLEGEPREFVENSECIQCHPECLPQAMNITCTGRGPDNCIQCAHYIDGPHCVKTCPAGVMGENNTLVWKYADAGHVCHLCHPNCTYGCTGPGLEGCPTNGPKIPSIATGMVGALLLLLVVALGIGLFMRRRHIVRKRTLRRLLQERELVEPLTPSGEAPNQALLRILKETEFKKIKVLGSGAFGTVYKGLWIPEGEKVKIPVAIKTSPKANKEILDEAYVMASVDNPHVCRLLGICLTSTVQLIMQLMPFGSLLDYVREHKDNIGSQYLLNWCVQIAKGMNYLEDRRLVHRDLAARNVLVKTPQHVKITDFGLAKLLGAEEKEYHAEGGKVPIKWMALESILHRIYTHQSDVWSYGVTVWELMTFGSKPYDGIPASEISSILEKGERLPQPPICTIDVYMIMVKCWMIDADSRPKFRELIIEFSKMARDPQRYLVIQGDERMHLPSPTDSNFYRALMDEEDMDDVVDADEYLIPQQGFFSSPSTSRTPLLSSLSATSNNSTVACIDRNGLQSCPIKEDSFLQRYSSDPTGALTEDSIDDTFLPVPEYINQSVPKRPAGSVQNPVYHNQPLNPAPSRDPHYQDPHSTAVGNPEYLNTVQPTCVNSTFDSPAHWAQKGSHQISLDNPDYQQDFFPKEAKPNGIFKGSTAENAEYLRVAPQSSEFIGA
T2 sequence (P00533 25-1210): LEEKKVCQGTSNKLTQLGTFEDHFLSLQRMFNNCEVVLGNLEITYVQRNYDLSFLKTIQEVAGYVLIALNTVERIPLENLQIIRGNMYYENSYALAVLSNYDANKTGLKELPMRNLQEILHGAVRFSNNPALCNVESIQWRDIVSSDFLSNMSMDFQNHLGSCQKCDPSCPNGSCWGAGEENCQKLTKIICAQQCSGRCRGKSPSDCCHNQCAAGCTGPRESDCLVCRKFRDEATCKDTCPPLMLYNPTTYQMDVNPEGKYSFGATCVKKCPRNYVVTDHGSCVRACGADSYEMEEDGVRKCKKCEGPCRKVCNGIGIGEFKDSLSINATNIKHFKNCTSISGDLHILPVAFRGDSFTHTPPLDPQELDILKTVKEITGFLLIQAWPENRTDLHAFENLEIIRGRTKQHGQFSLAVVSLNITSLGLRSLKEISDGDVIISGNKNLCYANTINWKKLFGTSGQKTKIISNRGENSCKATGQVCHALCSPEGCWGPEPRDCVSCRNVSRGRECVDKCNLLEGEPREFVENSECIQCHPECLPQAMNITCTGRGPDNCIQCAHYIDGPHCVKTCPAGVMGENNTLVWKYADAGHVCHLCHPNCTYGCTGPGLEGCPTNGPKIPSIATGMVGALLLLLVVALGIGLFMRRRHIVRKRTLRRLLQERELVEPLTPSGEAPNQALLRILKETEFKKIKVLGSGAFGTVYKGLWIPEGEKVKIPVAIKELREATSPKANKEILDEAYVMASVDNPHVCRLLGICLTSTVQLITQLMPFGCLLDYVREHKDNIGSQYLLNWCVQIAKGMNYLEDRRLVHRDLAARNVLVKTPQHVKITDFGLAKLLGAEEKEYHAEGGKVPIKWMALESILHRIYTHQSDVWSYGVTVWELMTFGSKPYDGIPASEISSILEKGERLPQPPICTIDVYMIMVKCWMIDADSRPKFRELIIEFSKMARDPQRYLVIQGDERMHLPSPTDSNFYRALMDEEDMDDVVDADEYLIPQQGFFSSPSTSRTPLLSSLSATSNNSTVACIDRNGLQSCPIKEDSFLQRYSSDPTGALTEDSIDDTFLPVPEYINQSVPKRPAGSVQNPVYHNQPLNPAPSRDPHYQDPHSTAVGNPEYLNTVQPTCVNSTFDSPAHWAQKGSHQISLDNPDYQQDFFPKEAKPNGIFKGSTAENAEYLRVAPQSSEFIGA

| Compound | IC50 [1, 5] [nM] | IC50 (wild-type EGFR; read-out: EGFR (WT) IC50) [nM] | IC50 ([2]; A-431, 72 h) [nM] | GI50 [3] [nM] | GI50 [4] [nM] | IC50 ([1]; EGFR (L858R/T790M/C797S) IC50(nM)) [nM] | IC50 (wild-type EGFR; EGFR (WT) IC50(nM)) [nM] | IC50 ([2]; A-431, 72 hours) [nM] |
| --- | --- | --- | --- | --- | --- | --- | --- | --- |
| CCOc1nc(N2CCOCC2)c(-c2cnn(C)c2)cc1Nc1ncc(Br)c(Nc2ccc3nccnc3c2P(C)(C)=O)n1 [compound 36] | 0.54 | 21.9 | 320 | 2.63 | 17.7 | – | – | – |
| COc1cc(N2CCC(N(C)C)C(F)C2)c(-c2cnn(C)c2)cc1Nc1ncc(Br)c(Nc2ccc3nccnc3c2P(C)(C)=O)n1 (centres unmarked) [compound 216] | 0.29 | 1.71 | 45.7 | 2.06 | 7.32 | – | – | – |
| COc1cc(N2CCC3(CCOC3)C2)c(-c2cnn(C)c2)cc1Nc1ncc(Br)c(Nc2ccc3nccnc3c2P(C)(C)=O)n1 (centres unmarked) [compound 203] | 0.47 | 21.2 | 351 | 10.6 | 20 | – | – | – |
| COc1cc(N2CCOCC2)c(-c2cnn(C)c2)cc1Nc1ncc(Br)c(Nc2ccc3nccnc3c2P(C)(C)=O)n1 [Compound 1, (6-((5-bromo-2-((2-methoxy-5-(1-methyl-1H-pyrazol-4-yl)-4-morpholinophenyl)amino)pyrimidin-4-yl)amino)quinoxalin-5-yl)-dimethylphosphine oxide] | 0.12 | 0.94 | 137 | 0.58 | 5.61 | – | – | – |
| COc1cc(N2CCOCC2)c(-c2cnn(C)c2)cc1Nc1ncc(C(F)(F)F)c(Nc2ccc3nccnc3c2P(C)(C)=O)n1 [compound 25] | 0.19 | 18.7 | 159 | 2.41 | 8.64 | – | – | – |
| COc1cc(N2CCN3CCOCC3C2)c(-c2cnn(C)c2)cc1Nc1ncc(Br)c(Nc2ccc3nccnc3c2P(C)(C)=O)n1 (centres unmarked) [compound 161] | 0.39 | 2.71 | 154 | 2.36 | 6.39 | – | – | – |
| COCCN1CCN(c2cc(OC)c(Nc3ncc(Br)c(Nc4ccccc4NS(C)(=O)=O)n3)cc2-c2cnn(C)c2)CC1 [compound 132] | 0.07 | 5.71 | 270 | 2.45 | 30 | – | – | – |
| CCOP(C)(=O)c1c(Nc2nc(Nc3cc(-c4cnn(C)c4)c(N4CCOCC4)c(F)c3OC)ncc2Br)ccc2nccnc12 (centres unmarked) [compound 24] | – | – | – | 45.2 | 139 | 11.4 | 346 | 567 |
| COc1cc(N2CCC(N3CCO[C@H](C)C3)CC2)c(-c2cnn(C)c2)cc1Nc1ncc(Br)c(Nc2ccc3nccnc3c2P(C)(C)=O)n1 [compound 163] | 0.28 | 1.89 | 71.8 | 0.62 | 1.97 | – | – | – |
| COc1cc(N2CCC(OC(C)C)CC2)c(-c2cnn(C)c2)cc1Nc1ncc(Br)c(Nc2ccc3nccnc3c2P(C)(C)=O)n1 [compound 151] | 2.2 | 38.2 | 318 | 1.84 | 7.47 | – | – | – |
| COc1cc(N2CC3CN(CCF)CC3C2)c(-c2cnn(C)c2)cc1Nc1ncc(Br)c(Nc2ccc3nccnc3c2P(C)(C)=O)n1 (centres unmarked) [compound 247, (6-((5-Bromo-2-((4-(5-(2-fluoroethyl)hexahydropyrrolo[3,4-c]pyrrol-2(1H)-yl)-2-methoxy-5-(1-methyl-1H-pyrazol-4-yl)phenyl)amino)pyrimidin-4-yl)amino)quinoxalin-5-yl)dimethylphosphine oxide] | 0.12 | 5.81 | 66.4 | 3.76 | 7.76 | – | – | – |
| COc1cc(N2CC3CC2CN3C)c(-c2cnn(C)c2)cc1Nc1ncc(Br)c(Nc2ccc3nccnc3c2P(C)(C)=O)n1 (centres unmarked) [compound 11] | 0.07 | 12.1 | 159 | 83.4 | 224 | – | – | – |
| Cc1nc(N2CCOCC2)c(-c2cnn(C)c2)cc1Nc1ncc(Br)c(Nc2ccc3nccnc3c2P(C)(C)=O)n1 [compound 38] | 0.23 | 17.8 | 295 | 10.2 | 32.6 | – | – | – |
| COc1cc(N2CC(C)OC(C)C2)c(-c2cnn(C)c2)cc1Nc1ncc(Br)c(Nc2cc3c(cc2P(C)(C)=O)CC3)n1 (racemic) [compound 136] | 5.3 | 99.5 | 1750 | 13.7 | 57.1 | – | – | – |
| COc1cc(N2CCCN(C)CC2)c(-c2cnn(C)c2)cc1Nc1ncc(Br)c(Nc2ccc3nccnc3c2P(C)(C)=O)n1 [compound 12] | 0.05 | 1.59 | 76.1 | 6.32 | 45.9 | – | – | – |
| COc1cc(N2CCC3CCN(CC4CC4)C3C2)c(-c2cnn(C)c2)cc1Nc1ncc(Br)c(Nc2ccc3nccnc3c2P(C)(C)=O)n1 (centres unmarked) [compound 227] | 0.59 | 2.69 | 34.7 | 2.78 | 6.64 | – | – | – |

| Compound | IC50 [1, 5] [nM] | IC50 (wild-type EGFR; read-out: EGFR (WT) IC50) [nM] | IC50 ([2]; A-431, 72 h) [nM] | GI50 [3] [nM] | GI50 [4] [nM] | IC50 ([1]; EGFR (L858R/T790M/C797S) IC50(nM)) [nM] | IC50 (wild-type EGFR; EGFR (WT) IC50(nM)) [nM] | IC50 ([2]; A-431, 72 hours) [nM] |
| --- | --- | --- | --- | --- | --- | --- | --- | --- |
| COc1cc(N2CCC3(CC2)CCN(C2COC2)CC3)c(-c2cnn(C)c2)cc1Nc1ncc(Br)c(Nc2ccc3nccnc3c2P(C)(C)=O)n1 [compound 248] | 0.29 | 1.91 | 84.7 | 1.17 | 2.37 | – | – | – |
| COC[C@@H]1CN(c2cc(OC)c(Nc3ncc(Br)c(Nc4ccc5nccnc5c4P(C)(C)=O)n3)cc2-c2cnn(C)c2)CCO1 [compound 127] | 0.24 | 2.83 | 170 | 0.59 | 4.18 | – | – | – |
| COc1cc(N2CCC(OC)C2)c(-c2cnn(C)c2)cc1Nc1ncc(Br)c(Nc2ccc3nccnc3c2P(C)(C)=O)n1 (centres unmarked) [compound 128] | 0.53 | 6.83 | 397 | 2.86 | 11.9 | – | – | – |
| COc1nc(N2CCOCC2)c(-c2cn(C)nc2C)cc1Nc1ncc(Br)c(Nc2ccc3nccnc3c2P(C)(C)=O)n1 [compound 37] | 3.18 | 268 | 1140 | 32.6 | 65.6 | – | – | – |
| COc1cc(N2CCC3(CCN(C)CC3)CC2)c(-c2cnn(C)c2)cc1Nc1ncc(Br)c(Nc2cc3c(cc2N(C)S(C)(=O)=O)CC3)n1 [compound 196] | 0.59 | 3.35 | 356 | 12.3 | 20.8 | – | – | – |
| COc1cc(C(=O)N(C)C)c(-c2cnn(C)c2)cc1Nc1ncc(Br)c(Nc2ccc3nccnc3c2P(C)(C)=O)n1 [compound 40] | 2.85 | 55.3 | 1180 | 1130 | 542 | – | – | – |
| COc1cc(N2CCC3(CCN(CC(F)F)CC3)CC2)c(-c2cnn(C)c2)cc1Nc1ncc(Br)c(Nc2ccc3nccnc3c2P(C)(C)=O)n1 [compound 149] | 3.36 | 78.5 | 376 | 1.62 | 3.21 | – | – | – |
| COc1cc(N2CCC3(CC2)CCN(C(C)C)CC3)c(-c2cnn(C)c2)cc1Nc1ncc(Br)c(Nc2ccc3nccnc3c2P(C)(C)=O)n1 [compound 228] | 0.48 | 1.04 | 44.8 | 4.58 | 8.5 | – | – | – |
| COc1cc(N2CCC(N3CCO[C@@H](C)C3)CC2)c(-c2cnn(C)c2)cc1Nc1ncc(Br)c(Nc2ccc3nccnc3c2P(C)(C)=O)n1 [compound 165] | 0.69 | 1.36 | 70.2 | 0.8 | 2.62 | – | – | – |
| COc1cc(N2CCN(C)C(CF)C2)c(-c2cnn(C)c2)cc1Nc1ncc(Br)c(Nc2ccc3nccnc3c2P(C)(C)=O)n1 (centres unmarked) [compound 153] | 0.22 | 3.02 | 61.9 | 1.03 | 2.89 | – | – | – |
| COc1cc(N2CCC(C)(O)CC2)c(-c2cnn(C)c2)cc1Nc1ncc(Br)c(Nc2ccc3nccnc3c2P(C)(C)=O)n1 [compound 142] | 0.25 | 1.16 | 196 | 0.34 | 2.89 | – | – | – |
| COc1cc(N2CCC(OCC3CC3)CC2)c(-c2cnn(C)c2)cc1Nc1ncc(Br)c(Nc2ccc3nccnc3c2P(C)(C)=O)n1 [compound 156] | 3.81 | 33.5 | 372 | 1.05 | 7.29 | – | – | – |
| CN1CCC2(CC1)CCN(c1nc(OCC(F)(F)F)c(Nc3ncc(Br)c(Nc4ccc5nccnc5c4P(C)(C)=O)n3)cc1-c1cnn(C)c1)CC2 [compound 87] | 0.35 | 3.47 | 178 | 5.89 | 14.2 | – | – | – |
| COc1cc(N2CCN3CCCC[C@@H]3C2)c(-c2cnn(C)c2)cc1Nc1ncc(Br)c(Nc2ccc3nccnc3c2P(C)(C)=O)n1 [compound 175] | 0.33 | 3.1 | 41.3 | 1.7 | 5.38 | – | – | – |
| COc1ccc(-c2cnoc2)cc1Nc1ncc(Br)c(Nc2ccc3nccnc3c2P(C)(C)=O)n1 [compound 9] | 0.88 | 75.7 | 450 | 55 | 110 | – | – | – |
